Molecules are shown by their SMILES. A value given as a limit tells only on which side of the number the result lay.

One experiment deals with Acetylcholinesterase (Homo sapiens, UniProt P22303). It is filed as functional.
Another experiment deals with D(1A) dopamine receptor (Homo sapiens, UniProt P21728).
For another experiment, the target named is Prothrombin (Homo sapiens, UniProt P00734). It is filed as functional.
Experiment [1] has as its target T1, 5-hydroxytryptamine receptor 1A (Homo sapiens, UniProt P08908).
T1 sequence (P08908 whole entry): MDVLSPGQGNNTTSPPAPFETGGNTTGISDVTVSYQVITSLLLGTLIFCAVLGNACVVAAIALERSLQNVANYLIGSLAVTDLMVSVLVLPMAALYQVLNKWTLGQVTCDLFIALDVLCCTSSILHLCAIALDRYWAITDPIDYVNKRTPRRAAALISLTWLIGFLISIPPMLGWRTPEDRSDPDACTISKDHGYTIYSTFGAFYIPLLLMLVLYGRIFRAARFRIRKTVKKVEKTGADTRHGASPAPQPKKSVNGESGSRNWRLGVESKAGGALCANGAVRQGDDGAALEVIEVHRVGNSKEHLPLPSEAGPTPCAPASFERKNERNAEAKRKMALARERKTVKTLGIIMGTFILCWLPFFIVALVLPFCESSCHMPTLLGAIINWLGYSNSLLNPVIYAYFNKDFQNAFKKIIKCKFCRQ

For experiment [2], the target named is 5-hydroxytryptamine receptor 2B (Homo sapiens, UniProt P41595). It is filed as functional, cell-based.
In experiment [3] the target is T2, Amine oxidase [flavin-containing] A (Homo sapiens, UniProt P21397).
T2 sequence (P21397 whole entry): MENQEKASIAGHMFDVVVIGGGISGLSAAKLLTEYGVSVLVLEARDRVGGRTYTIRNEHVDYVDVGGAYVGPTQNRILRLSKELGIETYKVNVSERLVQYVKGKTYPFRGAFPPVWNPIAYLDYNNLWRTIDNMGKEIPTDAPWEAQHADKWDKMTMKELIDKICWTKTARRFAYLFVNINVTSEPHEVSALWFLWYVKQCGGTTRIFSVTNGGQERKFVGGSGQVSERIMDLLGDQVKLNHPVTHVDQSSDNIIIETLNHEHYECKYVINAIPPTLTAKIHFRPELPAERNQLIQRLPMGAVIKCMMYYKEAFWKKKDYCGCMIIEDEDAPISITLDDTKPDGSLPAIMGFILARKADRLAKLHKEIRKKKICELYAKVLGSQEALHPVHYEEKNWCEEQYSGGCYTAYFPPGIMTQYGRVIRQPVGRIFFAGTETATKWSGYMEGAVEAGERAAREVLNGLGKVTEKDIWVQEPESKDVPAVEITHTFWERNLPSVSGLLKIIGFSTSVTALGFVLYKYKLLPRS
It is filed as functional.

Experiment [4] has as its target cGMP-inhibited 3',5'-cyclic phosphodiesterase 3A (Homo sapiens, UniProt Q14432). It is filed as functional.
In a further experiment the target is T3, Progesterone receptor (Homo sapiens, UniProt P06401).
T3 sequence (P06401 whole entry): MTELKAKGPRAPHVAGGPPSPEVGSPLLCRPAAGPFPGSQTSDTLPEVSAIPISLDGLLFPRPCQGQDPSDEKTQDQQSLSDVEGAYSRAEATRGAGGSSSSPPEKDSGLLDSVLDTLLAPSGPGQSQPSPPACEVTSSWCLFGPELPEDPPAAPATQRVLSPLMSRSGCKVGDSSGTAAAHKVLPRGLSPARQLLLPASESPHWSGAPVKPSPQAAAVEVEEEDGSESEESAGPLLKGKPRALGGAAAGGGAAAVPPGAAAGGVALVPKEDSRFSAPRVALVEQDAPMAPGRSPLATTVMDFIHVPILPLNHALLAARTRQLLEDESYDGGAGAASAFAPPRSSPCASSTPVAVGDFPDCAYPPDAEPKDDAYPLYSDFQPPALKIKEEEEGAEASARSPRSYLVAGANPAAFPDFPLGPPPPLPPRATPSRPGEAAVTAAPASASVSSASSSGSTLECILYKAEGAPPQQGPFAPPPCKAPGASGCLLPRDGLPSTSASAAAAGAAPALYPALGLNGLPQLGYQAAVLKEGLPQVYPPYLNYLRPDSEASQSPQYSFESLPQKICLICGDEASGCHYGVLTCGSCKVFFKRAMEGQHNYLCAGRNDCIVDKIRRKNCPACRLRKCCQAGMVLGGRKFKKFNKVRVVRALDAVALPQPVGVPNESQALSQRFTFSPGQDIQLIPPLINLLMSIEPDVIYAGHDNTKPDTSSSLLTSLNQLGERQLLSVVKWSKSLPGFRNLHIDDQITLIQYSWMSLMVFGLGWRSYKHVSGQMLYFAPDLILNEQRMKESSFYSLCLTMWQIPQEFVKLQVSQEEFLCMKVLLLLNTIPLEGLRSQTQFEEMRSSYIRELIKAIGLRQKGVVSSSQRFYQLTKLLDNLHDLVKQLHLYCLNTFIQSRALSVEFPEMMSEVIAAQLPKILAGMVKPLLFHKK

Experiment [5] deals with T4, Prostaglandin G/H synthase 1 (Homo sapiens, UniProt P23219). It is filed as functional.
For experiment [6], the target named is T4, Prostaglandin G/H synthase 1. It is filed as functional. The source holds these as a separate data set.
Experiment [7] has as its target Sodium-dependent noradrenaline transporter (Homo sapiens, UniProt P23975).
The target in experiment [8] is Sodium-dependent dopamine transporter (Homo sapiens, UniProt Q01959).
Experiment [9] addresses T5, Thromboxane A2 receptor (Homo sapiens, UniProt P21731).
T5 sequence (P21731 whole entry): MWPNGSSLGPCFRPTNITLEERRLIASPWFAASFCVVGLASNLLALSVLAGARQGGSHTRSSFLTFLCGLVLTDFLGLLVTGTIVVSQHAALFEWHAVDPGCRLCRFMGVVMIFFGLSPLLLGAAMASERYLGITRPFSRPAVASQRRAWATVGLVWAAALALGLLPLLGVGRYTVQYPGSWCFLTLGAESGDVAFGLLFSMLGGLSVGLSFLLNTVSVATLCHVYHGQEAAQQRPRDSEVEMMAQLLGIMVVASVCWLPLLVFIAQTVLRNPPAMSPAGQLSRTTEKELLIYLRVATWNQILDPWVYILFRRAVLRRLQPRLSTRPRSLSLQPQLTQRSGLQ
It is filed as functional, cell-based.

The target in experiment [10] is T5, Thromboxane A2 receptor. It is filed as functional, cell-based. This is another data set of the same source.
Further: assay procedure not described here.

Sequence of 5-hydroxytryptamine receptor 2B (P41595 whole entry): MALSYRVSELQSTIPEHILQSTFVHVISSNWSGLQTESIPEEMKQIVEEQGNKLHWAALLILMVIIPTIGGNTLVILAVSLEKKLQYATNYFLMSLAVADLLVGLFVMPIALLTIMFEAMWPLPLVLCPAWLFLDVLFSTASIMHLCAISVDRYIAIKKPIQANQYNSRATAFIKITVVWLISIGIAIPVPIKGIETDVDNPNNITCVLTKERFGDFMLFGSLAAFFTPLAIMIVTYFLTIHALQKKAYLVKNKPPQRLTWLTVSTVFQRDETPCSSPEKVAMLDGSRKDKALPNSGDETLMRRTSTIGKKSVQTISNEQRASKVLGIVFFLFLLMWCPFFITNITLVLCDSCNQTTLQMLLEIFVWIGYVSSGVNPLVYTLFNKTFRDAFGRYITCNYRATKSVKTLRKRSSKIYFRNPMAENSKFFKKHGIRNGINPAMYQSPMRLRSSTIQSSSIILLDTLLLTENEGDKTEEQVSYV
Sequence of Acetylcholinesterase (P22303 whole entry): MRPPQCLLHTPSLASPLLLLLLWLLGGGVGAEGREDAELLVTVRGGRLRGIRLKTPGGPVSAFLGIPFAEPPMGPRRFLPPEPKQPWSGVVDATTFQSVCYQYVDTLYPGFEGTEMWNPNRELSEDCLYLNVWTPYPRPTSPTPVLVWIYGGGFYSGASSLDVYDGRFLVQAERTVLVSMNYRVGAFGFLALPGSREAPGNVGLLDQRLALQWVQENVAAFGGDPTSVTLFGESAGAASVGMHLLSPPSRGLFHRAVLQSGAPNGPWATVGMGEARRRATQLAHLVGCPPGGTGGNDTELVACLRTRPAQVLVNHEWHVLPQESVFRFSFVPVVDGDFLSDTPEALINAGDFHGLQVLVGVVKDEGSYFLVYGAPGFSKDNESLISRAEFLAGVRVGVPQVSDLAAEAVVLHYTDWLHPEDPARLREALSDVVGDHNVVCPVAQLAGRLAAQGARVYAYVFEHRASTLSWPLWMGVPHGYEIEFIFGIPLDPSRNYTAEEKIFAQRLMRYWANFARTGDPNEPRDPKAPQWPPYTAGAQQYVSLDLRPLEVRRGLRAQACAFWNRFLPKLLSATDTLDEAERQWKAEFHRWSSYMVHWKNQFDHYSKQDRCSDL
T4 sequence (P23219 whole entry): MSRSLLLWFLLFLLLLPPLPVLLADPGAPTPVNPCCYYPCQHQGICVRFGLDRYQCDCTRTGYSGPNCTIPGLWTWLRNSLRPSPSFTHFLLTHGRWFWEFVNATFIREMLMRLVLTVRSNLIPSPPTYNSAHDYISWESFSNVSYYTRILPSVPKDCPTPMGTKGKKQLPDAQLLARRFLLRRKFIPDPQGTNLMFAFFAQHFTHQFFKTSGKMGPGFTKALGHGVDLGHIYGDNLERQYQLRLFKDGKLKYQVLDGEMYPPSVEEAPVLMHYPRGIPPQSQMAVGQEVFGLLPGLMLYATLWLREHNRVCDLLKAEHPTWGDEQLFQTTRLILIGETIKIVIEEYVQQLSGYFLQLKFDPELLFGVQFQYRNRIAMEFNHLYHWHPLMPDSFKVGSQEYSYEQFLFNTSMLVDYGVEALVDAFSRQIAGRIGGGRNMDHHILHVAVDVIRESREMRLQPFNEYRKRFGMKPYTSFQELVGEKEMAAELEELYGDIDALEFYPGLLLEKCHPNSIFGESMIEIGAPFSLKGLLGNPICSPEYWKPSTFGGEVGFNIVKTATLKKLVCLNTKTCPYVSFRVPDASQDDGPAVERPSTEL
Sequence of Sodium-dependent dopamine transporter (Q01959 whole entry): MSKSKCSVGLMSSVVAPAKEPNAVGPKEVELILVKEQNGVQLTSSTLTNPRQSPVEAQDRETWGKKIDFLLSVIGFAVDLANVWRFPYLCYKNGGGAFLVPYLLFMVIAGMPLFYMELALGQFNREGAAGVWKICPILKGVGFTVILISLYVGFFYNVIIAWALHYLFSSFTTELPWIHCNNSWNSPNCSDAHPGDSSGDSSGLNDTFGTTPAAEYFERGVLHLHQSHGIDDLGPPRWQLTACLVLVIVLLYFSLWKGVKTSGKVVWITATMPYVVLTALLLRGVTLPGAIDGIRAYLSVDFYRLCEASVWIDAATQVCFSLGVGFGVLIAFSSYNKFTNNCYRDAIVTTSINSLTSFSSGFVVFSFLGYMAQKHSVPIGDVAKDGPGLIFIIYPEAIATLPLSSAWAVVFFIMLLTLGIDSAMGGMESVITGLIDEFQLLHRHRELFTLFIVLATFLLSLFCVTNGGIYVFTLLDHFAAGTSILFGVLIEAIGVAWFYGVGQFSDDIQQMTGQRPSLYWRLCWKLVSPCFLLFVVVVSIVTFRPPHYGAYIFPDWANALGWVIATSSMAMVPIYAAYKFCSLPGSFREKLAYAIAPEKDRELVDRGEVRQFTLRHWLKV
Sequence of D(1A) dopamine receptor (P21728 whole entry): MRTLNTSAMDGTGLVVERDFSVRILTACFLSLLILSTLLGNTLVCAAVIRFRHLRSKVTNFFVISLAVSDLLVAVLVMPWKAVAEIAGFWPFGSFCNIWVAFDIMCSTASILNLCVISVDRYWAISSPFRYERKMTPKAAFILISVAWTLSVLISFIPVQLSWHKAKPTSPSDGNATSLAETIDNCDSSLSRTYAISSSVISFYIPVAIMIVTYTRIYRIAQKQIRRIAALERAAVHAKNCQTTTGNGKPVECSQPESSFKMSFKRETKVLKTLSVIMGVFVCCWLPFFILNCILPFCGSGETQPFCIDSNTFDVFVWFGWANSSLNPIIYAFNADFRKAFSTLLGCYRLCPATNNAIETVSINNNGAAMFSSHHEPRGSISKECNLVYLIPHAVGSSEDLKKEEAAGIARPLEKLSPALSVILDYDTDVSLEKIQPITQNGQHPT
Sequence of Sodium-dependent noradrenaline transporter (P23975 whole entry): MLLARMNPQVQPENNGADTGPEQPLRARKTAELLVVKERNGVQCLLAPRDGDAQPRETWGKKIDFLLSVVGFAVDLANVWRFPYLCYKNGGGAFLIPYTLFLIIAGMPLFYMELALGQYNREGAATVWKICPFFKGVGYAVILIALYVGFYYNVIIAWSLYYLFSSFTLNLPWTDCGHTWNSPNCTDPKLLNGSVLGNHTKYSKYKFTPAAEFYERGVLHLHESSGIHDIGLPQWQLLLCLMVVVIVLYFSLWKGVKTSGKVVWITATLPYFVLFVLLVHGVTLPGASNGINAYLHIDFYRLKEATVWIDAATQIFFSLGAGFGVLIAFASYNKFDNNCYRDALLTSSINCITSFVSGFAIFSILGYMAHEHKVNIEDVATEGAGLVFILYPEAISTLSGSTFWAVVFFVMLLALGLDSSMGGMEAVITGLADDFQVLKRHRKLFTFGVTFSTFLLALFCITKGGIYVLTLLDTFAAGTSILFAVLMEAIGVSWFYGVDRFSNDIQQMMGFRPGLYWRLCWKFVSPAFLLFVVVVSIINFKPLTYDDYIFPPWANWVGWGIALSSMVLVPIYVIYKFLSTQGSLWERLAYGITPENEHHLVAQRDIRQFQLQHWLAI
Sequence of cGMP-inhibited 3',5'-cyclic phosphodiesterase 3A (Q14432 whole entry): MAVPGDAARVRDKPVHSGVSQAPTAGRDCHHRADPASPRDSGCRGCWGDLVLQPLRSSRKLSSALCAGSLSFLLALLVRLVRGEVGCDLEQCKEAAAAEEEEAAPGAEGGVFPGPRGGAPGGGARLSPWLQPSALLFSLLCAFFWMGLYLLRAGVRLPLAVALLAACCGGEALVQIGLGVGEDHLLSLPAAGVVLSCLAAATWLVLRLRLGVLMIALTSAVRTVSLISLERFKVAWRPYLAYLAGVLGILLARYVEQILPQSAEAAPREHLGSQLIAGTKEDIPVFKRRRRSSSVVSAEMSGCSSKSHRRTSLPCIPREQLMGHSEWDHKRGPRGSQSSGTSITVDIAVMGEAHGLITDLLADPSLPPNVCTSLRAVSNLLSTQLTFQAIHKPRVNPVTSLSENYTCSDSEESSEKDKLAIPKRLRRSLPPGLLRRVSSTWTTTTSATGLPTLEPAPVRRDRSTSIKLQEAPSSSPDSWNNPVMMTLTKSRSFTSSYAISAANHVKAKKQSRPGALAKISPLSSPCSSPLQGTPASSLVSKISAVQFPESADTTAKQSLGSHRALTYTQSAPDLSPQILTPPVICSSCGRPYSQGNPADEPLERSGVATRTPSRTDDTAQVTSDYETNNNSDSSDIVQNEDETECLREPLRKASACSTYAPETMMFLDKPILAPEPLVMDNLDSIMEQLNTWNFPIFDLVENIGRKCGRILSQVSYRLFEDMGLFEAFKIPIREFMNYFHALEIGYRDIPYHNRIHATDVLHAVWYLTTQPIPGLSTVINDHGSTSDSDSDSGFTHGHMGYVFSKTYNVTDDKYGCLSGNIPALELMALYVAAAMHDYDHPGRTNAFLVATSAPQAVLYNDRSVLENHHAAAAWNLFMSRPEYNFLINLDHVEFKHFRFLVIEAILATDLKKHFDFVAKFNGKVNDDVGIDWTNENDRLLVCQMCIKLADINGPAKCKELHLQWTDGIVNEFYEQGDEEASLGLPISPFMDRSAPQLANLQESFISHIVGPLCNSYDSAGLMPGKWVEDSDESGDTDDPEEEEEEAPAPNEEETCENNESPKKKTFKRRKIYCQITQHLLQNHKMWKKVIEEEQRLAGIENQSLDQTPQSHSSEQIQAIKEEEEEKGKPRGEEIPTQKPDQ

One may read the AC50 as the midpoint of the concentration-response curve, whichever way the signal moves. For the compound `C[C@@H](O)[C@H]1C(=O)N2C(C(=O)O)=C(S[C@@H]3CN[C@H](C(=O)Nc4cccc(C(=O)O)c4)C3)[C@H](C)[C@H]12`, the concentration at half-maximal activity (AC50) (at Acetylcholinesterase; at D(1A) dopamine receptor; at Prothrombin; in experiment [1]; in experiment [2]; in experiment [3]) was over 30 µM throughout. For the same compound, the half-maximal activity concentration (AC50) in experiment [4] is over 30 µM; at Progesterone receptor, over 30 µM; in experiment [5], 10.2 µM; in experiment [6], 19.9 µM; in experiment [7], over 30 µM; in [8], over 30 µM. For the same compound, the AC50 at Thromboxane A2 receptor [9] and on Thromboxane A2 receptor [10] was over 30 µM each time.

For `CC(=O)OC1CN2CCC1CC2` (centres undefined) [ACECLIDINE], the AC50 (on Acetylcholinesterase; on D(1A) dopamine receptor; at Prothrombin; in [1]; in [2]; in experiment [3]) was over 30 µM throughout. Further, the AC50 (in experiment [4]; at Progesterone receptor; in experiment [5]; in experiment [6]; in experiment [7]; in experiment [8]) was over 30 µM in each case. Besides, the AC50 on Thromboxane A2 receptor [9] and on Thromboxane A2 receptor [10] was over 30 µM throughout.

As for `N=C(N)NC(=O)c1nc(Cl)c(N)nc1N` [AMILORIDE], the concentration at half-maximal activity (AC50) was over 30 µM on Acetylcholinesterase; over 30 µM on D(1A) dopamine receptor; over 30 µM at Prothrombin; 11.1 µM in experiment [1]; over 30 µM in experiment [2]; 5.24 µM in experiment [3]. Further, the concentration at half-maximal activity (AC50) (in [4]; on Progesterone receptor; in experiment [5]; in experiment [6]; in experiment [7]; in [8]) was over 30 µM in each case. Moreover, the AC50 on Thromboxane A2 receptor [9] and on Thromboxane A2 receptor [10] was over 30 µM each time.

`CC(=O)Nc1ccc(/C=N/NC(N)=S)cc1` [AMITHIOZONE]: the AC50 is over 30 µM at Acetylcholinesterase; over 30 µM at D(1A) dopamine receptor; over 30 µM at Prothrombin; over 30 µM in experiment [1]; over 30 µM in experiment [2]; over 10 µM in experiment [3]. Further, the AC50 (in [4]; on Progesterone receptor; in experiment [5]; in [6]; in experiment [7]; in experiment [8]) was over 30 µM throughout. The AC50 on Thromboxane A2 receptor [9] and on Thromboxane A2 receptor [10] was over 30 µM throughout.

Regarding `Cn1c(CCCC(=O)O)nc2cc(N(CCCl)CCCl)ccc21` [BENDAMUSTINE], the AC50 (at Acetylcholinesterase; on D(1A) dopamine receptor; on Prothrombin; in experiment [1]; in experiment [2]; in experiment [3]) was over 30 µM in each case. Further, the concentration at half-maximal activity (AC50) was over 30 µM in experiment [4]; over 30 µM on Progesterone receptor; over 30 µM in [5]; 5.8 µM in [6]; over 30 µM in [7]; over 30 µM in experiment [8]. Also, the half-maximal activity concentration (AC50) on Thromboxane A2 receptor [9] and on Thromboxane A2 receptor [10] was over 30 µM each time.

For the compound `O=NN(CCCl)C(=O)NCCCl` [CARMUSTINE], the AC50 (at Acetylcholinesterase; at D(1A) dopamine receptor; in experiment [1]; in experiment [2]; in [3]; in experiment [7]) was over 30 µM throughout. In [8], this compound gave an AC50 of over 30 µM.

Take `Cc1ccc(O)c([C@H](CCN(C(C)C)C(C)C)c2ccccc2)c1` [TOLTERODINE]: the concentration at half-maximal activity (AC50) (at Acetylcholinesterase; on D(1A) dopamine receptor; in experiment [1]; in experiment [2]; in experiment [3]; in experiment [7]) was over 30 µM throughout. In experiment [8], this compound displayed an AC50 of over 30 µM.

The values are drawn from ChEMBL document CHEMBL5291721, “A preclinical secondary pharmacology resource illuminates target-adverse drug reaction associations of marketed drugs” (Nat Commun, 2023).
